The record followed here is patent US7351728B2, “Oxazolyl-aryloxyacetic acid derivatives and their use as PPAR agonists” (Eli Lilly and Company, priority 2003, dated 2008).

In test [1] the target is T1, huPPARγ (Homo sapiens, UniProt P37231).
T1 sequence (P37231 1-505): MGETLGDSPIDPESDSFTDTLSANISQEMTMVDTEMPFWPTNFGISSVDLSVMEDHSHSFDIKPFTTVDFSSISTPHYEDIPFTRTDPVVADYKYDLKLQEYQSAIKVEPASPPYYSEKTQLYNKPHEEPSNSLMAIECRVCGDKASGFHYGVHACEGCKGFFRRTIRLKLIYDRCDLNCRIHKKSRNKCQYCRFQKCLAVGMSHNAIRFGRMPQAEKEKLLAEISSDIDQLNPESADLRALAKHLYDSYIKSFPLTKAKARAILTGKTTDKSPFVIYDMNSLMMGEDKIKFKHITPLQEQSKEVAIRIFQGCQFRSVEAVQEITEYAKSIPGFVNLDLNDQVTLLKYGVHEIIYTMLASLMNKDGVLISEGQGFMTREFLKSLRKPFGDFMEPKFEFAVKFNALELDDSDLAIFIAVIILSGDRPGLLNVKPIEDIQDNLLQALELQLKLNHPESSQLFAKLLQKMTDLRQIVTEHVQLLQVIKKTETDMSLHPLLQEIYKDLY
T1 sequence (P19793 1-462 partner): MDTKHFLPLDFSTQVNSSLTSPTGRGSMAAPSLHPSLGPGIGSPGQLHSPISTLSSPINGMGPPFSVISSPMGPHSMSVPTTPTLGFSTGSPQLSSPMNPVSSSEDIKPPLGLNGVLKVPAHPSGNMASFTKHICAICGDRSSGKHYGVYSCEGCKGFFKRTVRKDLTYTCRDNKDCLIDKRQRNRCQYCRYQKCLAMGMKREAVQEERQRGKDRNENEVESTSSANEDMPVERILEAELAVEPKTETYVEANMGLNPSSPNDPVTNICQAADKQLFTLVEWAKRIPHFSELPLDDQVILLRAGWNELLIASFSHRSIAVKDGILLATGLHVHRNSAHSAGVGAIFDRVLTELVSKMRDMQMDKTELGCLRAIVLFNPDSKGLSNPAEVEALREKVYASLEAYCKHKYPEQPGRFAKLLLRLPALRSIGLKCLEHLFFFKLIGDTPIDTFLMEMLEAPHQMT
As to the kind of experiment: DNA-dependent binding (ABCD binding), SPA, tritium-labeled PPARγ agonist radioligand. The conditions noted are these: displacement of tritium-labeled PPARγ agonist. How it is done:
(§1) DNA-dependent binding (ABCD binding) was carried out using SPA technology with PPAR receptors. Tritium-labeled PPARα and PPARγ agonists were used as radioligands for generating displacement curves and IC50 values with compounds of the invention. Cotransfection assays were carried out in CV-1 cells. The reporter plasmid contained an acylCoA oxidase (AOX) PPRE and TK promoter upstream of the luciferase reporter cDNA. Appropriate PPARs and RXRα were constitutively expressed using plasmids containing the CMV promoter. […] In order to eliminate such interference, a GAL4 chimeric system was used in which the DNA binding domain of the transfected PPAR was replaced by that of GAL4, and the GAL4 response element was utilized in place of the AOX PPRE. Cotransfection efficacy was determined relative to PPARα agonist and PPARγ agonist reference molecules. Efficacies were determined by computer fit to a concentration-response curve, or in some cases at a single high concentration of agonist (10 μM). For binding or cotransfection studies with receptors other than PPARs, similar assays were carried out using appropriate ligands, receptors, reporter constructs, etc., for that particular receptor.
(§2) These studies were carried out to evaluate the ability of compounds of the invention to bind to and/or activate various nuclear transcription factors, particularly huPPARα (“hu” indicates “human”) and huPPARγ. These studies provide in vitro data concerning efficacy and selectivity of compounds of the invention. Furthermore, binding and cotransfection data for compounds of the invention were compared with corresponding data for marketed compounds that act on either huPPARα or huPPARγ.
(§3) Binding and cotransfection data for representative compounds of the invention are compared with corresponding data for reference compounds in Table II.

For test [2], the target named is T2, huPPARα (Homo sapiens, UniProt Q07869).
T2 sequence (Q07869 1-468): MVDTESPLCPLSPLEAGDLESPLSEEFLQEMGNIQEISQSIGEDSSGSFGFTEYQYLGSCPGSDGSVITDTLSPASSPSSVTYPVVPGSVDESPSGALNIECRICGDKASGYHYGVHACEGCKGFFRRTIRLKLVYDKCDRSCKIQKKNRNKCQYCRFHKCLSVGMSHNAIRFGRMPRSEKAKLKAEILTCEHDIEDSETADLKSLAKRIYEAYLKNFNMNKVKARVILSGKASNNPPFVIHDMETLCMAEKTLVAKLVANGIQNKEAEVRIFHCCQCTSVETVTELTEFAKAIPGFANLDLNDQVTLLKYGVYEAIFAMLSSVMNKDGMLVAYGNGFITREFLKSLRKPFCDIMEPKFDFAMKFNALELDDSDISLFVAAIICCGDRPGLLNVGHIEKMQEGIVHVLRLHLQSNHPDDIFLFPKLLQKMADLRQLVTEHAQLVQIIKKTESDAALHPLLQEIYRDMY
T2 sequence (P19793 1-462 partner): T1 sequence (P19793 1-462 partner)
As to the kind of experiment: DNA-dependent binding (ABCD binding), SPA, tritium-labeled PPARα agonist radioligand. The conditions noted are these: displacement of tritium-labeled PPARα agonist. How it is done:
as §1, §2, §3

Each structure is given as a SMILES string.

What is called IC50 is the point on the concentration scale where inhibition reaches its midpoint. A high value points to a need for much substance. For the compound `Cc1oc(-c2cccc(Br)c2)nc1CCOc1ccc(OC(C)(C)C(=O)O)cc1` [Example 9A, 2-(4-{2-[2-(3-Bromophenyl)-5-methyloxazol-4-yl]ethoxy}phenoxy)-2-methylpropionic acid], the half-maximal inhibitory concentration (IC50) in test [1] is 0.18 µM; in test [2] it was 0.075 µM.
For the compound `CCc1ccc(-c2nc(CCOc3ccc(OC(C)(C)C(=O)O)cc3)c(C)o2)cc1` [Example 13, 2-(4-{2-[2-(4-Ethylphenyl)-5-methyloxazol-4-yl]ethoxy}phenoxy)-2-methylpropionic acid], the values for the 50% inhibitory concentration (IC50) in test [1] and in test [2] were 0.42 µM and 0.025 µM, respectively.
For `Cc1cc(OCCc2nc(-c3ccccc3)oc2C)ccc1OC(C)(C)C(=O)O` [Example 24, 2-Methyl-2-{2-methyl-4-[2-(5-methyl-2-phenyloxazol-4-yl)ethoxy]phenoxy}propionic acid], in that order: 0.239 µM and 0.624 µM.
The like results for `Cc1oc(-c2ccccc2)nc1CCOc1ccc(OC(C)(C)C(=O)O)cc1` [Example 1, 2-Methyl-2-{4-[2-(5-methyl-2-phenyloxazol-4-yl)ethoxy]phenoxy}propionic acid] were, in that order, 2.13 µM and 1.68 µM.
The like results for `CCc1cccc(-c2nc(CCOc3ccc(OC(C)(C)C(=O)O)cc3)c(C)o2)c1` [Example 12, 2-(4-{2-[2-(3-Ethylphenyl)-5-methyloxazol-4-yl]ethoxy}phenoxy)-2-methylpropionic acid] were, in that order, 0.219 µM and 0.031 µM.
Turning to `Cc1oc(-c2ccccc2)nc1CCOc1ccc(OC(C)(C)C(=O)O)c(Cc2ccccc2)c1` [Example 32, 2-{2-Benzyl-4-[2-(5-methyl-2-phenyloxazol-4-yl)ethoxy]phenoxy}-2-methylpropionic acid], the IC50 in test [1] was determined as 0.042 µM; in test [2], 0.05 µM.
The like results for `Cc1oc(-c2ccccc2)nc1CCOc1ccc(OC(C)(C)C(=O)O)c2c1CCCC2` [Example 38, 2-Methyl-2-{4-[2-(5-methyl-2-phenyl-oxazol-4-yl)-ethoxy]-5,6,7,8-tetrahydro-naphthalen-1-yloxy}-propionic acid] were, in that order, 0.081 µM and 0.254 µM.
As for `CCCc1cc(OCCc2nc(-c3ccccc3)oc2C)ccc1OCC(=O)O` [Example 26, {4-[2-(5-methyl-2-phenyl-oxazol-4-yl)ethoxy]-2-propylphenoxy}acetic acid], the values for the 50% inhibitory concentration (IC50) in test [1] and in test [2] were 1.15 µM and 3.28 µM, respectively.
For the compound `Cc1oc(-c2ccccc2)nc1CCOc1ccc(OC(C)(C)C(=O)O)c(CC(C)C)c1` [Example 30C, 2-{2-Isobutyl-4-[2-(5-methyl-2-phenyloxazol-4-yl)ethoxy]phenoxy}-2-methylpropionic acid], the half-maximal inhibitory concentration (IC50) in test [1] turned out to be 0.148 µM; in test [2], 0.259 µM.
In the case of `Cc1oc(-c2ccccc2)nc1CCOc1ccc(OC(C)(C)C(=O)O)c(CCc2ccccc2)c1` [Example 30J, 2-Methyl-2-{4-[2-(5-methyl-2-phenyloxazol-4-yl)ethoxy]-2-phenethylphenoxy}propionic acid], the half-maximal inhibitory concentration (IC50) in test [1] is 0.083 µM; in test [2], 0.082 µM.
The like results for `CCCc1cc(OCCc2nc(-c3ccccc3)oc2C)ccc1OC(C)(C)C(=O)O` [Example 26A, 2-Methyl-2-{4-[2-(5-methyl-2-phenyloxazol-4-yl)ethoxy]-2-propylphenoxy}propionic acid] were, in that order, 0.102 µM and 0.079 µM.
The like results for `Cc1oc(-c2ccccc2)nc1CCOc1ccc(OC(C)(C)C(=O)O)c2ccccc12` [Example 37, 2-Methyl-2-{4-[2-(5-methyl-2-phenyl-oxazol-4-yl)-ethoxy]-naphthalen-1-yloxy}-propionic acid] were, in that order, 0.172 µM and 0.294 µM.
For `Cc1oc(-c2ccc(OC3CCCCC3)cc2)nc1CCOc1ccc(OC(C)(C)C(=O)O)cc1` [Example 21, 2-(4-{2-[2-(4-Cyclohexyloxy-phenyl)-5-methyl-oxazol-4-yl]-ethoxy}-phenoxy)-2-methyl-propionic acid], in that order: 0.627 µM and 0.401 µM.
Consider `CCCCc1cc(OC(C)(C)C(=O)O)ccc1OCCc1nc(-c2ccccc2)oc1C` [Example 31F, 2-{3-Butyl-4-[2-(5-methyl-2-phenyloxazol-4-yl)ethoxy]phenoxy}-2-methylpropionic acid], for which the concentration for half-maximal inhibition (IC50) turned out to be 0.01 µM in test [1] and 0.03 µM in test [2].
The like results for `Cc1oc(-c2cccc(CCc3ccccc3)c2)nc1CCOc1ccc(OC(C)(C)C(=O)O)cc1` [Example 12A, 2-Methyl-2-(4-{2-[5-methyl-2-(3-phenethylphenyl)oxazol-4-yl]ethoxy}phenoxy)-propionic acid] were, in that order, 0.102 µM and 0.233 µM.
For `CCCc1cc(OC(C)(C)C(=O)O)ccc1OCCc1nc(-c2ccccc2)oc1C` [Example 27A, 2-Methyl-2-{4-[2-(5-methyl-2-phenyloxazol-4-yl)ethoxy]-3-propylphenoxy}propionic acid], in that order: 0.049 µM and 0.113 µM.
As for `CCc1cc(OCCc2nc(-c3ccccc3)oc2C)ccc1OC(C)(C)C(=O)O` [Example 30A, 2-{2-Ethyl-4-[2-(5-methyl-2-phenyloxazol-4-yl)ethoxy]phenoxy}2-methylpropionic acid], the concentration for half-maximal inhibition (IC50) in test [1] was 0.078 µM; in test [2], 0.189 µM.
